Measurements from patent US20030211076A1, “Compositions and methods for treatment of proliferative disorders” (priority 2003, published 2003).

Experiments:
Assay type in all cases: cell-based
[1] = system: growth-arrested Swiss 3T3 cells; test: FGF2-stimulated cell cycle progression, FACS analysis
Procedure: The activity of native and LO-oxidized FGF2 on cell cycle progression was evaluated by using fluorescence activated cell sorting (FACS) analysis (Darzynkiewicz et al.). Swiss 3T3 cells were growth-arrested by incubation in 0.3% fetal bovine serum (FBS)/Dulbecco's Modified Eagle's Medium (DMEM) for 3 days. As depicted in FIGS. 6A-6C, the prepared growth-arrested cells were treated for 20 h at 37° C. with or without FGF2, LO, BAPN or their combinations as indicated. After treatment, cells were washed, suspended by treatment with trypsin, washed again and fixed in 0.5% formaldehyde/0.1% Triton X-100/PBS for 15 minutes on ice followed by incubation of samples in 10 μg propidium iodide and 20 units RNAse per ml of PBS for 60 minutes in the dark for DNA staining. The fluorescence intensities of each sample of 10,000 cells in G1, S and G2/M phases were measured by flow cytometry at the FL2 setting of the fluorescence activated cell sorting (FACS) instrument (Becton-Dickinson Corp.). […] LO was presented at 10 nM, FGF2 at 5 ng ml^−1 and BAPN at 100 μM. Data represent the means (+sd) of three separate experiments each assessed with duplicate dishes.

[2] = system: ERK1 and ERK2 MAP kinases; test: FGF2-stimulated MAP kinase phosphorylation, Western blot
Procedure: Since activation of MAP kinases by FGF2 is one of the earliest mitogenic signaling events within cells (Maher), the effects of LO on FGF2-stimulated MAP kinase phosphorylation were tested by Western blot analysis using an antibody specific for phospho-extracellular signal-regulated kinases 1 and 2 (ERK1 and ERK2). The amount of total ERK1 and ERK2 MAP kinases within the same cell extracts was determined by using an antibody that recognizes both the phospho- and non-phospho-forms of ERK1 and ERK2. […] Cell extracts were prepared and equal amounts of proteins (25 μg) were analyzed by 10% SDS-PAGE. Immunoblotting was performed using antibodies specific for the active forms of ERK1 and ERK2 (A) and total ERKs (B).

[3] = system: growth-arrested Swiss 3T3 cells; test: PDGF-AB-stimulated cell cycle progression, FACS analysis
Procedure: Growth-arrested Swiss 3T3 cells were incubated for 20 h at 37° C. with or without PDGF-AB, LO, BAPN or their combinations as indicated. After incubation, FACS analysis was carried out to characterize the cell cycle progression under different conditions as described in FIG. 6. FIG. 20A represents a dose response of PDGF-AB in cell cycle progression. FIG. 20B represents the LO inhibition of PDGF-AB-stimulated cell cycle progression (the control represents cells treated with 15 ng ml^−1 PDGF-AB in the absence of added LO). FIG. 20C represents the effects of inactivation of LO by BAPN on PDGF-AB-stimulated the cell cycle progression. LO: 15 nM, PDGF-AB: 15 ng ml^−1, BAPN: 100 AM. Data represent the means (±sd) of three separate experiments each assessed with triplicate dishes.

[4] = system: VEC on Matrigel; test: Angiogenic response of Tat-stimulated VEC on Matrigel
Procedure: VEC grown on Matrigel, a solid gel of basement membrane proteins, rapidly align and form capillary-like structures providing a convenient in vitro model for angiogenesis studies (Albini et al., 1995; Grant et al.). Tat has been reported to enhance this in vitro morphogenesis of VEC consistent with its angiogenic property (Albini et al., 1995).
Cells (3×10^5) were plated on Matrigel-coated dishes. After 1 h incubation, various reagents were added to each culture. […] The following represents FIG. 15 phase-contrast microscopy: A, control; B, 10 ng ml^−1 Tat; C, 10 ng ml^−1 Tat+10 nM LO; D, 10 ng ml^−1 Tat+10 nM LO that was preincubated with 100 μM BAPN for 15 min at 370; E, 100 μM BAPN, alone, and F, 10 nM LO, alone.

[5] = system: VEC on Matrigel; test: Time course of angiogenic response of VEC on Matrigel without Tat stimulation; details: 6, 24 and 48 h
Procedure: Time course studies on inhibition by LO of angiogenic response of VEC on Matrigel without Tat stimulation was also investigated. Cells (3×10^5) were plated on Matrigel-coated dishes. After 1 h incubation, various reagents were added to each culture. […] At each time point, a, control; b,10 nM LO; c,10 nM LO that was preincubated with 100 μM BAPN for 15 min at 37°; d, 100 μM BAPN, alone.

lysyl oxidase [LO]
maximal decrease of FGF2 stimulation of cell cycle progression ([1]; 10 nM (0.32 μg/ml) LO, 0.28 nM FGF2): 80%
levels of phospho-MAP kinases ([2]; 5 ng/ml FGF2 and 10 nM LO, 10 min): reduced
levels of phospho-ERK1/2 ([2]; 10 nM LO without BAPN or FGF2): slightly increased
decrease of PDGF-AB-induced cell cycle progression ([3]; 15 nM (0.48 μg/ml) LO, 0.56 nM PDGF-AB): 73%
Tat-stimulated morphogenesis of VEC ([4]; 10 ng/ml Tat + 10 nM LO): effectively blocked
organization of VEC to form capillary-like structure ([5]; 10 nM LO preincubated with 100 μM BAPN (BAPN-inactivated)): strong inhibitory effects
organization of VEC to form capillary-like structure ([5]; 10 nM active LO): strong inhibitory effects

N#CCCN [BAPN, β-Aminopropionitrile, reference compound]
response relative to that observed with FGF2 alone ([1]; FGF2 5 ng/ml treated with 10 nM LO and 100 μM BAPN): 82±6%
effect on LO inhibition of FGF2 activation of MAP kinases ([2]; 5 ng/ml FGF2 + 10 nM LO + 100 μM BAPN): abolished
state of phosphorylation of MAP kinases ([2]; 100 μM BAPN alone): did not affect
cell cycle progression relative to the level stimulated with PDGF-AB alone ([3]; 100 μM BAPN with LO 15 nM and 0.56 nM PDGF): 100.4%
effect on LO-mediated inhibition of the angiogenic response ([4]; 10 nM LO preincubated with 100 μM BAPN for 15 min): not prevented
organization of VEC to form capillary-like structure ([5]; 100 μM BAPN alone): did not have significant effects
